Measurements as given in patent publication US7029857B1, “Processes for obtaining compounds employing SNORF72 receptors” (H. Lundbeck A/S, priority 1999, dated 2006).
Several values for one entry are separate records, joined by “and”; a condition that tells them apart may be missing. Equal values may be shown once. No end group written: not given here.

Tests used:
[1] = target: T1, SNORF72 (Homo sapiens, UniProt Q9GZQ4, A395T); assay: Intracellular Ca2+ release (FLIPR) in SNORF72-transfected COS-7 cells; format: cell-based; details: SNORF72-transfected COS-7 cells, peptides at 300 nM (FIG. 8)
T1 construct: expressed in transfected cells; host or cells: COS-7 (transient, DEAE-dextran)
T1 sequence (Q9GZQ4 whole entry A395T): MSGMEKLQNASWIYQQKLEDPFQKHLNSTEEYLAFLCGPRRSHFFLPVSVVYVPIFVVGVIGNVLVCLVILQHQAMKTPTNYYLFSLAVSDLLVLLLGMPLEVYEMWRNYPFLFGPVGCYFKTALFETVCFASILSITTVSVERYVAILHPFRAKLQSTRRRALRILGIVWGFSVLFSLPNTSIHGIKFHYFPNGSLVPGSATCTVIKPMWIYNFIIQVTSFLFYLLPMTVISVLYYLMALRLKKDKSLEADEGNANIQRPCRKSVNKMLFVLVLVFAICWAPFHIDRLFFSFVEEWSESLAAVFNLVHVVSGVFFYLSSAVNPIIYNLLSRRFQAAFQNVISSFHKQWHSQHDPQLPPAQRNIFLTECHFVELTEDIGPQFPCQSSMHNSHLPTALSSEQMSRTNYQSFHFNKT
Description: (§1) A typical protocol for the DEAE-dextran method as applied to COS-7 and HEK293 cells is described as follows. Cells to be used for transfection are split 24 hours prior to the transfection to provide flasks which are 70–80% confluent at the time of transfection. Briefly, 8 μg of receptor DNA plus 8 μg of any additional DNA needed (e.g. Gα protein expression vector, reporter construct, antibiotic resistance marker, mock vector, etc.) are added to 9 ml of complete DMEM plus DEAE-dextran mixture (10 mg/ml in PBS). Cells plated into a T225 flask (sub-confluent) are washed once with PBS and the DNA mixture is added to each flask. The cells are allowed to incubate for 30 minutes at 37° C., 5% CO2. Following the incubation, 36 ml of complete DMEM with 80 μM chloroquine is added to each flask and allowed to incubate an additional 3 hours. The medium is then aspirated and 24 ml of complete medium containing 10% DMSO for exactly 2 minutes and then aspirated. The cells are then washed 2 times with PBS and 30 ml of complete DMEM added to each flask. The cells are then allowed to incubate over night. The next day the cells are harvested by trypsinization and reseeded into 96 well plates.
(§2) Cells expressing the receptor of interest are plated into clear, flat-bottom, black-walled 96-well plates (Costar) at a density of 80,000–150,000 cells per well and allowed to incubate for 48 hr at 5% CO2, 37° C. The growth medium is aspirated and 100 μL of loading medium containing Fluo-3 dye is added to each well. The loading medium contains: 20 mM HEPES (Sigma), 0.1% BSA (Sigma), dye/pluronic acid mixture (e.g. 1 mM Fluo-3/AM (Molecular Probes) and 10% pluronic acid (Molecular Probes) mixed immediately before use), and 2.5 mM probenecid (Sigma)(prepared fresh). The cells are allowed to incubate for about 1 hour at 5% CO2, 37° C.
(§3) The compounds of interest are diluted in wash buffer (Hank's BSS (without phenol red), 20 mM HEPES, 2.5 mM probenecid) to a 4× final concentration and aliquoted into a clear v-bottom plate (Nunc). Following the dye incubation, the cells are washed 4 times to remove excess dye using a Denley plate washer. 100 μL final volume of wash buffer is then added to each cell well. Compounds are added to the cell plates and responses are measured using the FLIPR™ instrument. The data are then collected and analyzed using the FLIPR™ software and Graphpad Prism.
(§4) COS-7 cells were transiently transfected with SNORF62, SNORF72 or vector DNA (mock) as described in Materials and Methods.

[2] = target: T2, rat SNORF72 (Rattus norvegicus, UniProt Q9ESQ4); assay: Intracellular Ca2+ release (FLIPR) in rat SNORF72-transfected COS-7 cells; format: cell-based; details: FIG. 22 at 100 nM
T2 construct: corresponding to a predicted protein of 395 amino acids; expressed in transfected cells; host or cells: COS-7 (transient)
T2 sequence (Q9ESQ4 whole entry): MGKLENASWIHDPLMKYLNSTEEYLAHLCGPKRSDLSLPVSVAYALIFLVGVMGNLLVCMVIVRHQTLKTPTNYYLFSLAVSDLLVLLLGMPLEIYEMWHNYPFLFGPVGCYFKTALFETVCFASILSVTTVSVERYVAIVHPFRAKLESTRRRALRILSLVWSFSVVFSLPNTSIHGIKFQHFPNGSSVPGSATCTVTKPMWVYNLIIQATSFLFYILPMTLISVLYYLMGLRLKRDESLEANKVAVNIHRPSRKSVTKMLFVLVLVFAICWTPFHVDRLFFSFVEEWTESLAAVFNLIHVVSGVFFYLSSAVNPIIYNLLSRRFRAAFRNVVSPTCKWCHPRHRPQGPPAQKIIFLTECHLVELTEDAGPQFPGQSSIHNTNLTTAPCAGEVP
Description: as §1, with “The medium is then aspirated and 24 ml of complete medium containing 10% DMSO for exactly 2 minutes and then aspirated. The cells are then washed 2 times with PBS and 30 ml of complete DMEM added to each flask. The cells are then allowed to incubate over night. The next day the cells are harvested by trypsinization and reseeded into 96 well plates.” left out
In another method, the measurement of intracellular Ca^2+ can also be performed on a 96-well (or higher) format and with alternative Ca^2+-sensitive indicators, preferred examples of these are: aequorin, Fluo-3, Fluo-4, Fluo-5, Calcium Green-1, Oregon Green, and 488 BAPTA. After activation of the receptors with agonist ligands the emission elicited by the change of intracellular Ca^2+ concentration can be measured by a luminometer, or a fluorescence imager; a preferred example of this is the fluorescence imager plate reader (FLIPR™, Molecular Devices). […]

[3] = test system: rat uterus membranes; details: binding site in rat uterus; cited from earlier work
[4] = cited from earlier work
[5] = test system: rat adrenal gland slices; details: cited from earlier work
[6] = test system: isolated rat inner adrenocortical cells; details: absence of medullary cells; cited from earlier work
[7] = target: T3, SNORF62 (Homo sapiens, UniProt Q9HB89); assay: Intracellular Ca2+ release (FLIPR) in SNORF62-transfected COS-7 cells; format: cell-based; parameters: The SNORF62 cDNA codes for a protein of 426 amino acids; expressed in transfected cells; host or cells: COS-7 (transient, DEAE-dextran); details: for maximum response / agonist efficacy at SNORF62: functional assay, data not shown
T3 sequence (Q9HB89 1-426): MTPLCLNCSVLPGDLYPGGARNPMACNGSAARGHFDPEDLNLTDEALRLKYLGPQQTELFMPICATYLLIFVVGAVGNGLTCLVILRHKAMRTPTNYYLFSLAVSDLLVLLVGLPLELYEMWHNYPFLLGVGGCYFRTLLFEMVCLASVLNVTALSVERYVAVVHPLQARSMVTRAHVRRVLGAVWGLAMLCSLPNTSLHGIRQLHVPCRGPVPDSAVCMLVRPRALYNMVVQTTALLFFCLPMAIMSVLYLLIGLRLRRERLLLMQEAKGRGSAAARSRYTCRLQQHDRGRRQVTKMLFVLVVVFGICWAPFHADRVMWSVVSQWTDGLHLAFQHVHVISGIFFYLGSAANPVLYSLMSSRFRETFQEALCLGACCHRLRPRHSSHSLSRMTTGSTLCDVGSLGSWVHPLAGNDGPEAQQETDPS
Description: as §1, §2, §3, §4

[8] = target: T3, SNORF62; assay: Inositol phosphate (IP) release in SNORF62-transfected COS-7 cells; format: cell-based; parameters: The SNORF62 cDNA codes for a protein of 426 amino acids; expressed in transfected cells; host or cells: COS-7 (transient, DEAE-dextran)
Description: Human SNORF62 receptor-mediated activation and human SNORF72 receptor-mediated activation of the inositol phosphate (IP) second messenger pathways were assessed by radiometric measurement of IP products.
For example, in a 96 well microplate format assay, COS-7 cells expressing the receptor of interest were plated at a density of 70,000 cells per well and allowed to incubate for 24 hours. The cells were then labeled with 0.5 μCi [^3H]myo-inositol overnight at 37° C., 5% CO2. Immediately before the assay, the medium was removed and replaced with 180 μL of Phosphate-Buffered Saline (PBS) containing 10 mM LiCl. The plates were then incubated for 20 min at 37° C., 5% CO2. Following the incubation, the cells were challenged with agonist (20 μl/well; 10× concentration) for 30 min at 37° C. The challenge was terminated by the addition of 100 μL of 5% v/v trichloroacetic acid, followed by incubation at 4° C. for greater than 30 minutes. Total IPs were isolated from the lysate by ion exchange chromatography. Briefly, the lysed contents of the wells were transferred to a Multiscreen HV filter plate (Millipore) containing Dowex AG1-X8 (200–400 mesh, formate form). The filter plates were prepared adding 100 μL of Dowex AG1-X8 suspension (50% v/v, water: resin) to each well. The filter plates were placed on a vacuum manifold to wash or elute the resin bed. Each well was first washed 2 times with 200 μl of 5 mM myo-inositol. Total [^3H]inositol phosphates were eluted with 75 μl of 1.2M ammonium formate/0.1M formic acid solution into 96-well plates. 200 μL of scintillation cocktail was added to each well, and the radioactivity was determined by liquid scintillation counting.

[9] = target: T1, SNORF72; assay: Displacement of [125I]rat NMU-23 binding in SNORF72-transfected COS-7 membranes; details: SNORF72 membranes, displacement of [125I]rat NMU-23; read-out: average pKi (converted)
Description: (§5) The specifics of preparing such cell membranes may in some cases be determined by the nature of the ensuing assay but typically involve harvesting whole cells and disrupting the cell pellet by sonication in ice cold buffer (e.g. 20 mM Tris HCl, mM EDTA, pH 7.4 at 4° C.). The resulting crude cell lysate is cleared of cell debris by low speed centrifugation at 200×g for 5 min at 4° C. The cleared supernatant is then centrifuged at 40,000×g for 20 min at 4° C., and the resulting membrane pellet is washed by suspending in ice cold buffer and repeating the high speed centrifugation step. The final washed membrane pellet is resuspended in assay buffer. Protein concentrations are determined by the method of Bradford (1976) using bovine serum albumin as a standard. The membranes may be used immediately or frozen for later use.
(§6) Radioligand binding assays were performed by diluting membranes prepared from cells expressing the receptor in 50 mM Tris buffer (pH=7.4 at 0° C.) containing 0.1% bovine serum albumin (Sigma), aprotinin (0.005 mg/ml, Boehringer Mannheim) and bestatin (0.1 mM, Sigma) as protease inhibitors. The final protein concentration in the assay was 12–40 μg/ml. […] The bound ligand was separated from free by filtration through GF/B filters presoaked in 0.5% polyethyleneimine (PEI), using a Tomtec (Wallac) vacuum filtration device. After addition of Ready Safe (Beckman) scintillation fluid, bound radioactivity was quantitated using a Trilux (Wallac) scintillation counter (approximately 40% counting efficiency of bound counts). Data was fit to non-linear curves using GraphPad Prism.
(§7) In this manner, agonist or antagonist compounds that bind to the receptor may be identified as they inhibit the binding of the labeled ligand to the membrane protein of cells expressing the said receptor. Non-specific binding was defined as the amount of radioactivity remaining after incubation of membrane protein in the presence of 100 nM of the unlabeled peptide corresponding to the radioligand used. In equilibrium saturation binding assays membrane preparations or intact cells transfected with the receptor are incubated in the presence of increasing concentrations of the labeled compound to determine the binding affinity of the labeled ligand.

[10] = test system: isolated rat uterus preparations; details: read-out: EC50 concentration for contraction; cited from earlier work
[11] = target: T3, SNORF62; assay: Displacement of [125I]rat NMU-23 binding in SNORF62-transfected COS-7 membranes; parameters: The SNORF62 cDNA codes for a protein of 426 amino acids; expressed in transfected cells; host or cells: COS-7 (transient, DEAE-dextran); details: SNORF62 membranes, displacement of [125I]rat NMU-23; read-out: average pKi (converted)
Description: as §5, §6, §7

[12] = target: T1, SNORF72; assay: Saturation binding of radioligands to SNORF72-transfected COS-7 membranes; details: two values n=2
Description: COS-7 cells were transiently transfected with SNORF72 and membranes were prepared as described in Materials and Methods. […] Results presented are representative of 2 experiments performed in duplicate.
(§8) Cell membranes expressing the receptor protein of this invention are useful for certain types of assays including but not restricted to ligand binding assays, GTP-γ-S binding assays, and others. The specifics of preparing such cell membranes may in some cases be determined by the nature of the ensuing assay but typically involve harvesting whole cells and disrupting the cell pellet by sonication in ice cold buffer (e.g. 20 mM Tris HCl, mM EDTA, pH 7.4 at 4° C.). The resulting crude cell lysate is cleared of cell debris by low speed centrifugation at 200×g for 5 min at 4° C. […] Protein concentrations are determined by the method of Bradford (1976) using bovine serum albumin as a standard. […]
(§9) Radioligand binding assays were performed by diluting membranes prepared from cells expressing the receptor in 50 mM Tris buffer (pH=7.4 at 0° C.) containing 0.1% bovine serum albumin (Sigma), aprotinin (0.005 mg/ml, Boehringer Mannheim) and bestatin (0.1 mM, Sigma) as protease inhibitors. […] After addition of Ready Safe (Beckman) scintillation fluid, bound radioactivity was quantitated using a Trilux (Wallac) scintillation counter (approximately 40% counting efficiency of bound counts). […]

[13] = target: T3, SNORF62; assay: Saturation binding of radioligands to SNORF62-transfected COS-7 membranes; parameters: The SNORF62 cDNA codes for a protein of 426 amino acids; expressed in transfected cells; host or cells: COS-7 (transient, DEAE-dextran); details: two values n=2
Description: COS-7 cells were transiently transfected with SNORF62 and membranes were prepared as described in Materials and Methods. […] Results are representative of 2 experiments performed in duplicate.
as §8, §9

[14] = rats, single subcutaneous injection 6 μg/100 g body weight

| Molecule | stimulation of intracellular Ca2+ release [1] | increases in intracellular Ca2+ [2] | IC50 [3] | stress-evoked rise in corticosterone ([4]; rats treated for 6 days) | time during which ACTH blood concentrations are elevated [4, 14] | time plasma corticosterone levels remain elevated [4, 14] | adrenal weight and the number of cells in the zona reticularis ([4]; repeated administration) | basal corticosterone and pregnenolone steroid secretion [5] | basal corticosterone secretion [6] | maximum response / agonist efficacy at SNORF62 [7] | agonist efficacy in IP release assay [8] | Ki [9] | EC50 [10] | EC50 ([7]; stimulation of Ca2+ release, SNORF62-transfected COS-7 cells, n = 2-7 (Table 1A)) | Ki [11] | Bmax [12] | Bmax [13] |
| --- | --- | --- | --- | --- | --- | --- | --- | --- | --- | --- | --- | --- | --- | --- | --- | --- | --- |
| CC(C)C[C@H](NC(=O)[C@H](Cc1ccccc1)NC(=O)[C@@H](N)Cc1ccc(O)cc1)C(=O)N[C@@H](Cc1ccccc1)C(=O)N[C@@H](CCCNC(=N)N)C(=O)N1CCC[C@H]1C(=O)N[C@@H](CCCNC(=N)N)C(=O)N[C@@H](CC(N)=O)C(N)=O [porcine NMU-8, Y F L F R P R N—NH2] | stimulated | robust increases | 60 nM | absent | 3 to 12 h | 24 h | decreased | markedly increased | without effect | full agonists | full agonists |  |  |  |  |  |  |
| YKVNEYQGPVAPSGGFFLFRPRN-NH2 [rat NMU-23, YKVNEYQGPVAPSGGFFLFRPRN—NH2] | stimulated | robust increases | 1 nM |  |  |  |  |  | directly decreased | full agonists | full agonists | 1 nM | 0.2 nM | 2.1 ± 0.5 nM | 0.398 nM |  |  |
| [^125I]rat NMU-23: radioiodinated rat NMU-23 radioligand (NEN, specific activity 2200 Ci/mmole) (YKVNEYQGPVAPSGGFFLFRPRN-NH2; ends and bridges not checked; also: radioiodinated (125I), position not given here) |  |  |  |  |  |  |  |  |  |  |  |  |  |  |  | 8.0 pmol/mg protein and 8.2 pmol/mg protein | 16.5 pmol/mg protein and 9.9 pmol/mg protein |
